Measurements reported in US11858938B2, “Imidazo-fused heterocycles and uses thereof” (Ligand Pharmaceuticals Incorporated, priority 2015, dated 2024).

Molecular target: T1, Recombinant human FLT3 (Homo sapiens, UniProt P36888)
T1 construct: His6 (C)
T1 sequence (P36888 27-993): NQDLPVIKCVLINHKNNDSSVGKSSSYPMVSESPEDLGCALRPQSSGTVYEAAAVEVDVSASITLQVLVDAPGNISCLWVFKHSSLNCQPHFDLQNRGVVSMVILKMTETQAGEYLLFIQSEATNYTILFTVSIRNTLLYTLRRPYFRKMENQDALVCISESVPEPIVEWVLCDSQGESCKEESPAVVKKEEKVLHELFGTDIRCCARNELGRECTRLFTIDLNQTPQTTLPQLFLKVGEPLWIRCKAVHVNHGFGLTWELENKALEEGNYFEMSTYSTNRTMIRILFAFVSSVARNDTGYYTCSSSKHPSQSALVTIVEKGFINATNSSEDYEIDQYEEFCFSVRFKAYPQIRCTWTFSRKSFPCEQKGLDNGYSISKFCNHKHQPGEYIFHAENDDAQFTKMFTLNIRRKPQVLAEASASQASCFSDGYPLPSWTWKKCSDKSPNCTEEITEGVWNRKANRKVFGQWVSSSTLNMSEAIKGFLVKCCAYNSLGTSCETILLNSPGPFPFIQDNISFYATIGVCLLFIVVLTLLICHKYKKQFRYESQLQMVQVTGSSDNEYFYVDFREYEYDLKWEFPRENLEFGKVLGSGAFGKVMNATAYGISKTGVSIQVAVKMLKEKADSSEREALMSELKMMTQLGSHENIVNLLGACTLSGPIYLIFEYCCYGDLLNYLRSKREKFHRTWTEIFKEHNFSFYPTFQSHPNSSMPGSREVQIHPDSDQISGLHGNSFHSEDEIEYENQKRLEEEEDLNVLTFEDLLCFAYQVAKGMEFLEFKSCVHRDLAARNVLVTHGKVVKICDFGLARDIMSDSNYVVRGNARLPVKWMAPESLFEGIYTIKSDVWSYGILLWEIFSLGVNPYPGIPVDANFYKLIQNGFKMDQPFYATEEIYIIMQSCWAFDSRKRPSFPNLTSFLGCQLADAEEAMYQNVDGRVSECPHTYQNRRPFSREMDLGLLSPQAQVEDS
Test: Flt3 kinase inhibitory assay (radioisotope filtration binding, 33P-ATP)
Assay type: biochemical
Conditions: read-out: Flt3 inhibition IC50
Protocol: The assay is performed using traditional radioisotope filtration binding.
A base reaction buffer is prepared consisting of 20 mM Hepes (pH 7.5), 10 mM MgCl2, 1 mM EGTA, 0.02% Brij35, 0.02 mg/ml BSA, 0.1 mM […], 2 mM DTT, 1% DMSO. The peptide substrate abltide [[…]] is added to the base reaction buffer to yield a final concentration of 5 μM. Additional cofactors (1.5 mM CaCl2, 16 ug/ml Calmodulin, and 2 mM MnCl2) are added to the buffer/substrate solution. Recombinant human FLT3 (baculovirus expression system using a C-terminal His6-tag) is added to the solution and gently mixed. Test compounds are dissolved in DMSO and added to the buffer/kinase solution to yield a final concentration of 5 μM. […] The reaction is initiated by the addition of ^33P-ATP (specific activity […]) into the reaction mixture to a final concentration of 10 μM. The kinase reaction was incubated for 120 minutes at room temperature. The reactions are spotted onto P81 ion exchange paper (Whatman #3698-915) and the filter papers are extensively washed in 0.75% Phosphoric acid and beta emissions are measured.

IC50 [nM]	SMILES
0.11	c1cc(-c2cn3cc(Nc4cc(CN5CCCC5)ccn4)nc3cn2)ccn1 [Compound 101]
0.25	c1cc(-c2ccc3nc(Nc4cc(CN5CCCC5)ccn4)cn3n2)ccn1 [Compound 102]
